Measured values reported in patent publication US20180037923A1, “SELECTIVE DETECTION OF LACTIC ACID AND/OR ACETIC ACID BACTERIA OR OF FUNGI” (priority 2015, published 2018).

Tests used:
Test in all cases: Agar plate count after contact with antifungal
[1] = test system: Lactobacillus brevis IFBM; format: cell-based; conditions: count at contact time 0 h 7.10^5 CFU/mL
From the text: (§1) The word “bactericide” refers to a treatment having the effect of reducing a bacterial population by at least three decimal logarithms of colony forming units/ml on an agar plate count of a sample after treatment.
(§2) The toxicity results on yeasts and on bacteria are presented in the table below displaying the duration of exposure of the fungal flora to molecule A1 and the associated fluorescence measurement: yeasts lysis after exposure to the antifungal was confirmed by microscopic examination and methylene blue staining.
(§3) The words “contact time” refer to below, the time of exposure of the microorganisms to the fungicidal product, here molecule A1.
(§4) Below: “No CFU” is the abbreviation for “No Colony forming unit on agar plate count”.
(§5) The toxicity results on yeasts and on bacteria are presented in the table below displaying the duration of exposure of the fungal flora to the molecule A2 and are obtained by enumeration on MRS agar media.

[2] = test system: Lactobacillus lindneri DSM 20690; format: cell-based
From the text: as §1, §2, §3, §4, §5

G. oxydans DSM 7145 = format: cell-based, Gluconobacter oxydans
From the text: as §1, §2, §3, §4, §5

Q: For `C[C@@H]1[C@H](O)[C@@H](C)/C=C/C=C/C=C/C=C/C=C/C=C/C=C/[C@H](O[C@@H]2O[C@H](C)[C@@H](O)[C@H](N)[C@@H]2O)C[C@@H]2O[C@](O)(C[C@@H](O)C[C@@H](O)[C@H](O)CC[C@@H](O)C[C@@H](O)CC(=O)O[C@H]1C)C[C@H](O)[C@H]2C(=O)O` [Molecule A1, Amphotericin B], which “Agar plate count contact time 4 h” value ([1]; 200 mg/L) is on record?
A: 2.9.10^5 CFU/mL

Q: What about the “Agar plate count contact time 4 h” value ([1]; 400 mg/L) of the same molecule?
A: 3.10^5 CFU/mL

Q: What about the “Agar plate count contact time 4 h” value ([2]; 200 mg/L, count at contact time 0 h 6.10^6 CFU/mL) of the same molecule?
A: 2.10^6 CFU/mL

Q: What about the “Agar plate count contact time 4 h” value ([2]; 400 mg/L, count at contact time 0 h 6.10^5 CFU/mL) of the same molecule?
A: 7.10^4 CFU/mL

Q: What about the “Agar plate count contact time 4 h” value (G. oxydans DSM 7145; 200 mg/L, count at contact time 0 h 8.10^8 CFU/mL) of the same molecule?
A: 1.10^9 CFU/mL

Q: What about the “Agar plate count contact time 4 h” value (G. oxydans DSM 7145; 400 mg/L, count at contact time 0 h 8.10^7 CFU/mL) of the same molecule?
A: 9.10^7 CFU/mL
